Experimental data taken from patent US20180200339A1, “METHODS OF REDUCING CORNEAL ENDOTHELIAL CELL LOSS” (Massachusetts Eye and Ear Infirmary, priority 2013, published 2018).

Experiments:
[1] = tested on: corneal endothelial cells; assay: VIP treatment of mice after trigeminal axotomy: corneal endothelial cell density (immunofluorescence, ZO-1 staining); assay type: in vivo, BALB/c mice; conditions: daily intraperitoneal VIP 5 nM in 10 μL, day 14, versus saline
Protocol: (§1) Six- to eight-week old male BALB/c mice (Charles River, Wilmington, Mass.) were used in these experiments. Trigeminal axotomy was performed by first anesthetizing the animals with a ketamine (100 mg/mL)/xylazine (20 mg/mL)/acepromazine (15 mg/mL) mixture. After anesthetization, small incision lateral canthotomy was performed, two tractional sutures were placed on the lid skin, and the conjunctival fornix were incised circumferentially around 90 degrees. The eye globe was rotated nasally by gently pushing the nasal fornix with blunt forceps, exposing the trigeminal nerve and minimizing intraoperative bleeding through mild elevation of the intraorbital pressure. The ophthalmic branches of the trigeminal nerve were cut at the posterior sclera close to the optic nerve with sharp forceps. After cutting the branches of the trigeminal nerve, the skin was sutured using 8-0 nylon. Tarsorrhaphy was performed to reduce the risk of infection and exposure keratitis in the mice. Finally, an antibiotic ointment (bacitracin-neomycin-polymyxin mixture) was applied to the sutured area and the treated eye in the mice. Fluxinin (0.25 mg /kg body weight) was administered every 12 hours for 24 hours by subcutaneous injection. […]
Corneal endothelial cells were counted using cell counter plug-ins with ImageJ software (NIH, Bethesda, Md.). […] The results are expressed as mean±SEM, and considered significant if p<0.05.

cornea = assay: VIP treatment of mice after trigeminal axotomy: corneal thickness by AS-OCT; assay type: in vivo, BALB/c mice; conditions: daily intraperitoneal VIP 5 nM in 10 μL, day 14, AS-OCT, versus saline
Protocol: as §1, with “mice.” for “mice. Fluxinin (0.25 mg /kg body weight) was administered every 12 hours for 24 hours by subcutaneous injection.”
Normal and post-operative cornea were examined using anterior segment optical coherence tomography (AS-OCT, RTVue, Optoview, Inc., Fremont, Calif.) at 7, 14 and 21 days after the surgical procedure. […] The corneal thickness was measured using built-in software. […]

Substance: vasoactive intestinal peptide [VIP]
- corneal endothelial cell density [1]: didn't decrease
- corneal thickness (cornea): remained within the normal ranged
